Target: CFTR (Homo sapiens, UniProt P13569)
Experiment: Membrane Potential Dye, Enteroid Assay B
Assay type: cell-based
Conditions: for EC50: read-out: Ent. B EC50
In short: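 Membrane-potential fluorescence read over 15 min after chloride-free stimulation (forskolin 10 μM, IBMX 100 μM, Compound III 300 nM), with CaCCinh-A01 and Chicago Sky Blue present. Enteroids had 18-24 h compound exposure at 37 °C; activity given as % of the triple-combination corrector/potentiator reference response.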

CFTR, sequence (P13569 with tags, fused parts or gaps DEL508-508): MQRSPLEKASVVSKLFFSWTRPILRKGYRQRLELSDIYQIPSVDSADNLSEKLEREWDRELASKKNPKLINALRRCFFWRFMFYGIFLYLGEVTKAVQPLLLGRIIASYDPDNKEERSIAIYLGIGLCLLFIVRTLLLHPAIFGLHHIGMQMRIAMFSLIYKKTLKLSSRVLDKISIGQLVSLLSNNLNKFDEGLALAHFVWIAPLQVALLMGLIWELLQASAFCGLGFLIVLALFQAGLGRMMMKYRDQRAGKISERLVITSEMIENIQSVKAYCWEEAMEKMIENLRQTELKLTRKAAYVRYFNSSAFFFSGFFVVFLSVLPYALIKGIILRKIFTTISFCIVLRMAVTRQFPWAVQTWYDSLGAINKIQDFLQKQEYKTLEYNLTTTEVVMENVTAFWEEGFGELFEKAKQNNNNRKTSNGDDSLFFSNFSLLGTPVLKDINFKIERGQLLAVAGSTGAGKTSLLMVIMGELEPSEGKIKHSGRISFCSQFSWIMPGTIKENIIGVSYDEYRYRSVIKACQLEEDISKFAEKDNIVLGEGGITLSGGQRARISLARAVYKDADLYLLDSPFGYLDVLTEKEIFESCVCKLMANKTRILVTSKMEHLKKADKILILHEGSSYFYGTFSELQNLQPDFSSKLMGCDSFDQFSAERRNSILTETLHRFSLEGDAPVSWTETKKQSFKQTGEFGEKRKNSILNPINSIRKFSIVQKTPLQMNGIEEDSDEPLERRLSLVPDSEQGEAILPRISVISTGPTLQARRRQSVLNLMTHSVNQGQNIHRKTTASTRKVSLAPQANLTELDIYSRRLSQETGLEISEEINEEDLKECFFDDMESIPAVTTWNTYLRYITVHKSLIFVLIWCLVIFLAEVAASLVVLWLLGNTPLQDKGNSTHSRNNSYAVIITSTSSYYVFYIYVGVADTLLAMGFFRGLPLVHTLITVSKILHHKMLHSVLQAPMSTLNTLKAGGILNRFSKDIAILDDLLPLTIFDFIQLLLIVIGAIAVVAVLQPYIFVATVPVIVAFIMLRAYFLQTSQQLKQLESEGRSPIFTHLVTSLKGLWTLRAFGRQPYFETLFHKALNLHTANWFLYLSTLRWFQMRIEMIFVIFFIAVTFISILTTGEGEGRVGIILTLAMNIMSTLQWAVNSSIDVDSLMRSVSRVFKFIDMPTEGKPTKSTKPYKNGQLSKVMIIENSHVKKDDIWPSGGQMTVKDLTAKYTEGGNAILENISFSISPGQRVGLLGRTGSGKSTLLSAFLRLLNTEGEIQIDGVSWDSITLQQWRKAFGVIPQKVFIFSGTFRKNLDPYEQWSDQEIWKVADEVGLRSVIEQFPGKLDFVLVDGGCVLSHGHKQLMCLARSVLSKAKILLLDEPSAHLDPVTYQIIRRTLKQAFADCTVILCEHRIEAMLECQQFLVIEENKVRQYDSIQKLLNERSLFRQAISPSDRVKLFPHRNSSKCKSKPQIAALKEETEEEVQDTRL

Ent. B Max Activity	EC50	SMILES
+++ (+++ is >60%)	< 1000 nM	Cc1cccc(C)c1-c1nc2nc(c1C)OC[C@@H](CC(C)(C)C)N(C1CC3(CC(N(C)C)C3)C1)C(=O)c1cccc(c1)S(=O)(=O)N2 (some centres unmarked) [Compound 95]
+++ (+++ is >60%)	< 1000 nM	Cc1cccc(C)c1-c1nc2nc(c1C)OC[C@@H](CC(C)C)N(C1CC3(CC(CO)C3)C1)C(=O)c1cccc(c1)S(=O)(=O)N2 (stereo in doubt) [Compound 66]
+++ (+++ is >60%)	1000 to 3000 nM	Cc1cccc(C)c1-c1nc2nc(c1C)OC[C@@H](CC(C)(C)O)N(Cc1ncccn1)C(=O)c1cccc(c1)S(=O)(=O)N2 [Compound 111]
+++ (+++ is >60%)	< 1000 nM	Cc1ccc(C(F)(F)F)c(C)c1-c1nc2nc(c1C(F)(F)F)OC[C@@H](CC(C)C)NC(=O)c1cccc(c1)S(=O)(=O)N2 [Compound 163, (11R)-6-[2,6-Dimethyl-3-(trifluoromethyl)phenyl]-11-isobutyl-2,2-dioxo-7-(trifluoromethyl)-9-oxa-2λ^6-thia-3,5,12,19-tetrazatricyclo[12.3.1.14,8]nonadeca-1(18),4(19),5,7,14,16-hexaen-13-one]
++ (++ is 30-60%)	< 1000 nM	Cc1cccc(C)c1-c1nc2nc(c1C)OC(c1ccc(CC3(C(F)(F)F)CC3)cn1)CN(C)C(=O)c1cccc(c1)S(=O)(=O)N2 (centres unmarked) [Compound 204]
++ (++ is 30-60%)	< 1000 nM	Cc1cccc(C)c1-c1nc2nc(c1C)OC[C@@H](CC(C)C)N([C@H]1C[C@@H](OC(C)C)C1)C(=O)c1cccc(c1)S(=O)(=O)N2 (single isomer, unassigned) [Compound 47]
++ (++ is 30-60%)	3000 to 30000 nM	Cc1cccc(C)c1-c1nc2nc(c1C)OC[C@@H](CCC(C)(C)O)N(Cc1ncccn1)C(=O)c1cccc(c1)S(=O)(=O)N2 [Compound 113]
